According to the NIST ThermoML archive (doi:10.1021/je700260f):

Conditions: Liquid, Vibrating tube method

FC(C(F)(F)F)C(F)(F)F [1,1,1,2,3,3,3-heptafluoropropane]
Conditions	mass density [kg/m3]
333.13 K, 4181 kPa	1264.9
333.13 K, 4207 kPa	1265.2
333.13 K, 4241 kPa	1265.8
333.13 K, 4278 kPa	1266.2
333.13 K, 4309 kPa	1266.6
333.13 K, 4338 kPa	1266.8
333.13 K, 4364 kPa	1267.4
333.13 K, 4398 kPa	1267.7
333.13 K, 4432 kPa	1268.2
333.13 K, 4463 kPa	1268.6
333.13 K, 4762 kPa	1272.2
333.13 K, 4802 kPa	1272.8
333.13 K, 4834 kPa	1273.3
333.13 K, 4861 kPa	1273.7
333.13 K, 4893 kPa	1274.1
333.13 K, 4916 kPa	1274.2
333.13 K, 4947 kPa	1274.6
333.13 K, 4988 kPa	1275.2
333.13 K, 5015 kPa	1275.4
333.13 K, 5055 kPa	1275.9
333.13 K, 5086 kPa	1276.3
333.13 K, 5123 kPa	1276.9
333.13 K, 5155 kPa	1277.2
333.13 K, 5191 kPa	1277.7
333.13 K, 5224 kPa	1277.9
333.13 K, 5261 kPa	1278.4
333.13 K, 5294 kPa	1278.8
333.13 K, 5325 kPa	1279.1
333.13 K, 5365 kPa	1279.6
333.13 K, 5432 kPa	1280.3
333.13 K, 5541 kPa	1281.7
333.13 K, 5612 kPa	1282.4
333.13 K, 5635 kPa	1282.8
333.13 K, 5673 kPa	1283.2
333.13 K, 25651 kPa	1419.9
333.13 K, 25679 kPa	1419.9
333.13 K, 25788 kPa	1420.5
333.13 K, 27375 kPa	1427.5
333.13 K, 27408 kPa	1427.7
333.13 K, 27436 kPa	1427.8
333.13 K, 33941 kPa	1454.3
333.13 K, 33977 kPa	1454.4
333.13 K, 34019 kPa	1454.5
333.13 K, 34054 kPa	1454.8
333.13 K, 34100 kPa	1454.9
333.13 K, 34136 kPa	1455
333.14 K, 1234 kPa	1218
333.14 K, 1254 kPa	1218.5
333.14 K, 1281 kPa	1218.9
333.14 K, 1309 kPa	1219.4
333.14 K, 1332 kPa	1220.1
333.14 K, 1355 kPa	1220.5
333.14 K, 1386 kPa	1221.1
333.14 K, 1403 kPa	1221.3
333.14 K, 1427 kPa	1221.8
333.14 K, 1448 kPa	1222.1
333.14 K, 1472 kPa	1222.6
333.14 K, 1496 kPa	1223.2
333.14 K, 1520 kPa	1223.5
333.14 K, 1540 kPa	1223.9
333.14 K, 1568 kPa	1224.4
333.14 K, 1593 kPa	1224.9
333.14 K, 1614 kPa	1225.4
333.14 K, 2164 kPa	1235.1
333.14 K, 2189 kPa	1235.5
333.14 K, 2224 kPa	1236.1
333.14 K, 2254 kPa	1236.5
333.14 K, 2277 kPa	1237
333.14 K, 2308 kPa	1237.5
333.14 K, 2330 kPa	1237.9
333.14 K, 2385 kPa	1238.7
333.14 K, 2413 kPa	1239.2
333.14 K, 2434 kPa	1239.4
333.14 K, 2460 kPa	1240
333.14 K, 2489 kPa	1240.4
333.14 K, 2516 kPa	1240.8
333.14 K, 2546 kPa	1241.2
333.14 K, 2576 kPa	1241.8
333.14 K, 2634 kPa	1242.8
333.14 K, 2657 kPa	1243.2
333.14 K, 2684 kPa	1243.6
333.14 K, 2716 kPa	1244.1
333.14 K, 2981 kPa	1248.1
333.14 K, 3011 kPa	1248.6
333.14 K, 3038 kPa	1249
333.14 K, 3071 kPa	1249.5
333.14 K, 3107 kPa	1249.9
333.14 K, 3140 kPa	1250.4
333.14 K, 3169 kPa	1251
333.14 K, 3205 kPa	1251.4
333.14 K, 4501 kPa	1269.1
333.14 K, 4531 kPa	1269.4
333.14 K, 4566 kPa	1269.9
333.14 K, 4601 kPa	1270.4
333.14 K, 4623 kPa	1270.6
333.14 K, 4661 kPa	1271
333.14 K, 4697 kPa	1271.7
333.14 K, 4727 kPa	1272
333.14 K, 5403 kPa	1280.1
333.14 K, 5469 kPa	1280.8
333.14 K, 5503 kPa	1281.2
333.14 K, 5584 kPa	1282.2
333.14 K, 5709 kPa	1283.6
333.14 K, 5750 kPa	1283.9
333.14 K, 5782 kPa	1284.4
333.14 K, 5815 kPa	1284.8
333.14 K, 5845 kPa	1285.1
333.14 K, 5879 kPa	1285.5
333.14 K, 5908 kPa	1285.8
333.14 K, 5941 kPa	1286.1
333.14 K, 5970 kPa	1286.4
333.14 K, 6009 kPa	1287
333.14 K, 6052 kPa	1287.3
333.14 K, 6090 kPa	1287.8
333.14 K, 6133 kPa	1288.1
333.14 K, 6158 kPa	1288.5
333.14 K, 6191 kPa	1289
333.14 K, 6216 kPa	1289.2
333.14 K, 6250 kPa	1289.5
333.14 K, 6472 kPa	1291.9
333.14 K, 6498 kPa	1292.3
333.14 K, 6533 kPa	1292.6
333.14 K, 6555 kPa	1292.7
333.14 K, 6594 kPa	1293.3
333.14 K, 6633 kPa	1293.6
333.14 K, 6668 kPa	1293.9
333.14 K, 6702 kPa	1294.2
333.14 K, 6728 kPa	1294.7
333.14 K, 6758 kPa	1295
333.14 K, 6922 kPa	1296.7
333.14 K, 7050 kPa	1297.8
333.14 K, 7081 kPa	1298.2
333.14 K, 7125 kPa	1298.6
333.14 K, 7151 kPa	1299
333.14 K, 7182 kPa	1299.2
333.14 K, 7209 kPa	1299.5
333.14 K, 7243 kPa	1299.9
333.14 K, 7278 kPa	1300.2
333.14 K, 7311 kPa	1300.4
333.14 K, 7341 kPa	1300.7
333.14 K, 7368 kPa	1301.1
333.14 K, 7402 kPa	1301.4
333.14 K, 7424 kPa	1301.7
333.14 K, 7460 kPa	1302.1
333.14 K, 7496 kPa	1302.4
333.14 K, 7527 kPa	1302.6
333.14 K, 7559 kPa	1303
333.14 K, 7590 kPa	1303.3
333.14 K, 7632 kPa	1303.7
333.14 K, 7670 kPa	1304.1
333.14 K, 7702 kPa	1304.3
333.14 K, 7735 kPa	1304.7
333.14 K, 7767 kPa	1305.1
333.14 K, 7795 kPa	1305.2
333.14 K, 7826 kPa	1305.5
333.14 K, 7864 kPa	1305.9
333.14 K, 7893 kPa	1306.1
333.14 K, 7930 kPa	1306.5
333.14 K, 7957 kPa	1306.8
333.14 K, 7996 kPa	1307.2
333.14 K, 8029 kPa	1307.4
333.14 K, 8057 kPa	1307.7
333.14 K, 8080 kPa	1307.9
333.14 K, 25452 kPa	1419
333.14 K, 25486 kPa	1419
333.14 K, 25524 kPa	1419.3
333.14 K, 25553 kPa	1419.5
333.14 K, 25586 kPa	1419.6
333.14 K, 25615 kPa	1419.7
333.14 K, 25704 kPa	1419.9
333.14 K, 25735 kPa	1420.1
333.14 K, 25762 kPa	1420.4
333.14 K, 25814 kPa	1420.7
333.14 K, 25854 kPa	1420.9
333.14 K, 25874 kPa	1420.9
333.14 K, 25917 kPa	1421.1
333.14 K, 25950 kPa	1421.3
333.14 K, 25976 kPa	1421.4
333.14 K, 26005 kPa	1421.5
333.14 K, 26036 kPa	1421.6
333.14 K, 26069 kPa	1421.8
333.14 K, 26295 kPa	1422.8
333.14 K, 26327 kPa	1422.9
333.14 K, 26353 kPa	1423.1
333.14 K, 26386 kPa	1423.1
333.14 K, 26411 kPa	1423.3
333.14 K, 26444 kPa	1423.3
333.14 K, 26469 kPa	1423.6
333.14 K, 26504 kPa	1423.7
333.14 K, 27209 kPa	1426.8
333.14 K, 27239 kPa	1427
333.14 K, 27284 kPa	1427.1
333.14 K, 27317 kPa	1427.3
333.14 K, 27346 kPa	1427.5
333.14 K, 27465 kPa	1428
333.14 K, 27494 kPa	1428
333.14 K, 27531 kPa	1428.3
333.14 K, 27561 kPa	1428.5
333.14 K, 27595 kPa	1428.4
333.14 K, 28013 kPa	1430.3
333.14 K, 28047 kPa	1430.5
333.14 K, 28080 kPa	1430.6
333.14 K, 28109 kPa	1430.9
333.14 K, 28138 kPa	1430.9
333.14 K, 28167 kPa	1431
333.14 K, 28201 kPa	1431.2
